# Measurements published in US9399030B2, “Topically applied circulation enhancing agent and skin and hair cosmetic and bath agent containing the same” (AJINOMOTO CO., INC., priority 2005, dated 2016).
# Tests used:
# conchae of hairless mice = experiment: Vasodilating effect on the conchae of hairless mice, visual evaluation of red spots (Examples 2 and 4); assay type: in vivo, hairless mouse (HR-1, female); conditions: for Remarks: vasodilating effect: in liquid paraffin; for Vasodilating effect, 5 wt %: 5 wt % in liquid paraffin; for Vasodilating effect, 5 wt % / Vasodilating effect, 1 wt %: symbols not defined in the patent; for Activity compared with capsiate: statement in the description; for Vasodilating effect, 1 wt %: 1 wt % in liquid paraffin
# From the text: The vasodilating effects of capsinoids (a mixed product prepared by the method stated in Reference Example (5) was employed; see below) and capsaicin was compared using the conchae of hairless mice.
# Test Method: A sample was applied on the right ear and a control was applied on the left ear of a hairless mouse (HR-1, female), and the development of red spots was visually evaluated.
# Sample: (1) Capsinoids (1 weight percent and 5 weight percent dissolved in liquid paraffin)
# (2) Capsaicin (1 weight percent and 5 weight percent dispersed in liquid paraffin)
# (§1) In the same manner as in Example 2, the vasodilating effects of various capsinoid compounds were compared using the conchae of hairless mice. The samples were dissolved in liquid paraffin.
# [1] = Dissolution of the sample in liquid paraffin (Example 4); assay type: physicochemical
# Method: as §1
SMILES,Remarks: vasodilating effect (conchae of hairless mice),"Vasodilating effect, 5 wt % (conchae of hairless mice)",Activity compared with capsiate (conchae of hairless mice),further results
CCCCCCCCCCCC(=O)OCc1ccc(O)c(OC)c1 [Vanillyl dodecanoate],No vasodilating effect,–,–,–
"COc1cc(COC(=O)CCCCCCCC(C)C)ccc1O [Vanillyl 9-methyldecanoate, vanillyl 9-methyldecanoate]",–,◯,about the same degree of activity as capsiate,Remarks: disappearance of the vasodilating effect (conchae of hairless mice; 5 weight percent application): disappeared in about two hour
"COc1cc(COC(=O)CCCCCCC(C)C)ccc1O [Dihydrocapsiate, 4-hydroxy-3-methoxybenzyl 8-methylnonanoate]",–,◯,–,"Vasodilating effect, 1 wt % (conchae of hairless mice): Δ; Remarks: weak red spots still caused after (conchae of hairless mice; 5 weight percent application): caused even after 90 minutes"
CCCCCCCC/C=C\CCCCCCCC(=O)OCc1ccc(O)c(OC)c1 [Vanillyl oleate],No vasodilating effect,–,–,–
"CCC(C)CCCCC(=O)OCc1ccc(O)c(OC)c1 (centres unmarked) [Vanillyl 6-methyloctanoate, vanillyl 6-methyloctanoate]",–,◯,about the same degree of activity as capsiate,Remarks: disappearance of the vasodilating effect (conchae of hairless mice; 5 weight percent application): disappeared in about two hour
CCCCCCCCCCCCC(=O)OCc1ccc(O)c(OC)c1 [Vanillyl tridecanoate],No vasodilating effect,–,–,–
"CCC(C)CCCCCCC(=O)OCc1ccc(O)c(OC)c1 (centres unmarked) [Vanillyl 8-methyldecanoate, vanillyl 8-methyldecanoate]",–,◯,about the same degree of activity as capsiate,Remarks: disappearance of the vasodilating effect (conchae of hairless mice; 5 weight percent application): disappeared in about two hour
"CCCCCCCC(=O)OCc1ccc(O)c(OC)c1 [Vanillyl octanoate, 4-hycroxy-3-methoxybenzyl octanoate]",–,◯,about the same degree of activity as capsiate,Remarks: disappearance of the vasodilating effect (conchae of hairless mice; concentration not given): Vasodilating effect disappeared in about one hour
"COc1cc(CNC(=O)CCCC/C=C/C(C)C)ccc1O [Capsaicin, capsaicin, reference compound]",–,◯,–,"Remarks: red spots still caused after (conchae of hairless mice; 1 weight percent application): even after two hours; Persistence of red spots (conchae of hairless mice; 1 weight percent dispersed in liquid paraffin): retained their original form even after two hours; Development of red spots (visual evaluation) (conchae of hairless mice; 1 weight percent in liquid paraffin, applied on ear): red spots were observed; Vasodilating effect, 1 wt % (conchae of hairless mice): ◯; Development of red spots (visual evaluation) (conchae of hairless mice; 5 weight percent in liquid paraffin, 30 minutes after application): clear red spots were observed"
"COc1cc(CO)ccc1O [Vanillyl alcohol, reference compound]",No vasodilating effect,–,–,–
"COc1cc(COC(=O)CCCC/C=C/C(C)C)ccc1O [Capsiate, 4-hydoxy-3-methoxybenzyl (E)-8-methyl-6-nonenoate]",–,◯,–,"Vasodilating effect, 1 wt % (conchae of hairless mice): Δ; Remarks: weak red spots still caused after (conchae of hairless mice; 5 weight percent application): caused even after 90 minutes"
"CCCCCCCCC(=O)OCc1ccc(O)c(OC)c1 [vanillyl nonanoate, 4-hydroxy-3-methyloxybenzyl nonanoate]",–,–,about the same degree of activity as capsiate,–
"CCC(C)CCCCCC(=O)OCc1ccc(O)c(OC)c1 (centres unmarked) [Vanillyl 7-methylnonanoate, vanillyl 7-methylnonanoate]",–,◯,about the same degree of activity as capsiate,Remarks: disappearance of the vasodilating effect (conchae of hairless mice; 5 weight percent application): disappeared in about two hour
CCCCCCCCCCCCCCC(=O)OCc1ccc(O)c(OC)c1 [Vanillyl pentadecanoate],–,–,–,Remarks: dissolution in liquid paraffin [1]: Not dissolved
CCCCCCCCCCCCCCCCCC(=O)OCc1ccc(O)c(OC)c1 [Vanillyl octadecanoate],No vasodilating effect,–,–,–
"CCCCCCCCCC(=O)OCc1ccc(O)c(OC)c1 [Vanillyl decanoate, 4-hydroxy-3-methoxybenzyl decanoate (caprate)]",–,◯,about the same degree of activity as capsiate,Remarks: disappearance of the vasodilating effect (conchae of hairless mice; concentration not given): Vasodilating effect disappeared in about one hour
"COc1cc(COC(=O)CCCCCC(C)C)ccc1O [Nordihydrocapsiate, nordihydrocapsiate]",–,◯,–,"Vasodilating effect, 1 wt % (conchae of hairless mice): Δ; Remarks: weak red spots still caused after (conchae of hairless mice; 5 weight percent application): caused even after 90 minutes"
CC/C=C\C/C=C\C/C=C\CCCCCCCC(=O)OCc1ccc(O)c(OC)c1 [Vanillyl linolenate],No vasodilating effect,–,–,–
"CCCCCCCCCCC(=O)OCc1ccc(O)c(OC)c1 [Vanillyl undecanoate, vanillyl undecanoate]",–,◯,about the same degree of activity as capsiate,Remarks: disappearance of the vasodilating effect (conchae of hairless mice; concentration not given): the effect disappeared more quickly than for C10.
